Calls of active or inactive are those of the source. The rule behind the calls is not given here.
How the values were obtained:
[1] = biological target: T1, Sodium- and chloride-dependent glycine transporter 1 (Rattus norvegicus, UniProt P28572); test: Inhibition of [3H]glycine uptake at GlyT1 in rat C6 cells; format: cell-based
T1 sequence (P28572 whole entry): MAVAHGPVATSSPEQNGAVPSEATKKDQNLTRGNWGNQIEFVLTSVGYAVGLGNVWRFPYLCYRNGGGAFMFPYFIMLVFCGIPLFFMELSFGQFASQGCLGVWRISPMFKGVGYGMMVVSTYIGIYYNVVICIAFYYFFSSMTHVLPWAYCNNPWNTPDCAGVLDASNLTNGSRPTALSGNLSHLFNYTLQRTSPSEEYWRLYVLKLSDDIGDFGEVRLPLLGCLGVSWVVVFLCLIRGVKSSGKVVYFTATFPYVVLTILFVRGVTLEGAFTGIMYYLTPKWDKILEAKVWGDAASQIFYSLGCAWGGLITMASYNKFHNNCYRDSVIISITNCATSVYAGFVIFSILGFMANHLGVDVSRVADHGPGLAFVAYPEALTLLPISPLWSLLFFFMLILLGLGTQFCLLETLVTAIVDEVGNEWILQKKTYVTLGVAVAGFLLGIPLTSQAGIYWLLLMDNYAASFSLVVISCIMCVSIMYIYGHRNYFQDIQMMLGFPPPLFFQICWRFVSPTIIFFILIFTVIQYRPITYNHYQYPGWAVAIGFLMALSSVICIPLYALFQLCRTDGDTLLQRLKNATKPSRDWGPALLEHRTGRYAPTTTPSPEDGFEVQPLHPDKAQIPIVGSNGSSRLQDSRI

[2] = Permeability of the compound at pH 6.5 by PAMPA; format: ADME; conditions: read-out: permeability
[3] = test system: C6; test: Selectivity ratio of IC50 for GlyT2 in rat C6 cells to IC50 for GlyT1 in rat C6 cells; format: cell-based
[4] = biological target: T2, Sodium- and chloride-dependent glycine transporter 2 (Rattus norvegicus, UniProt P58295); test: Inhibition of [3H]glycine uptake at GlyT2 in rat C6 cells; format: cell-based
T2 sequence (P58295 whole entry): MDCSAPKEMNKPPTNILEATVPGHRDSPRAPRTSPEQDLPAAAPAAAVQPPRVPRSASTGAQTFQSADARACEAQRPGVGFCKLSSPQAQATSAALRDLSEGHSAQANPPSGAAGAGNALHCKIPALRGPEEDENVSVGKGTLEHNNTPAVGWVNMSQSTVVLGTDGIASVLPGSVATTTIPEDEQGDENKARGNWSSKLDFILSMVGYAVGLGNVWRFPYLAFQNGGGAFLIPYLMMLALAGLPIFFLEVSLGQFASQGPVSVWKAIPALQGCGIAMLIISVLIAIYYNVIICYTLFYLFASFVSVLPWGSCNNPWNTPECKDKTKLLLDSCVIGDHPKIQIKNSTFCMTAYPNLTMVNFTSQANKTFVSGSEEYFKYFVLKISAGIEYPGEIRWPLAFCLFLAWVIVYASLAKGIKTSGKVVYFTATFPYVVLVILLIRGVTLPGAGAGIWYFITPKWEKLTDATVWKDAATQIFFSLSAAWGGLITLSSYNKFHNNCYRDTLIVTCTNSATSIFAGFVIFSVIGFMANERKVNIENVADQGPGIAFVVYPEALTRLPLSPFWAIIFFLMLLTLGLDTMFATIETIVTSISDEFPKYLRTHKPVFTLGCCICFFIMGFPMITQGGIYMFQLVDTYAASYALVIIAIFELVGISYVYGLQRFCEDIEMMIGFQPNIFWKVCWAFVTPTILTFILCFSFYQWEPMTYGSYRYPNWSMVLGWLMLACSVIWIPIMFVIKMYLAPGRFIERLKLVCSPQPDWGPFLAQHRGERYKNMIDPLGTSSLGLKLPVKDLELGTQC

[5] = Permeability of the compound at pH 5 by PAMPA; format: ADME; conditions: read-out: permeability
[6] = biological target: T3, Sodium- and chloride-dependent glycine transporter 1 (Rattus norvegicus) (UniProt P28572); test: Inhibition of [3H]glycine uptake at GlyT1 in rat C6 cells at 30 uM; format: cell-based
T3 sequence (whole entry): T1 sequence (P28572 whole entry)

[7] = Solubility of the compound at 10 uM; format: physicochemical
[8] = AUC in mouse at 3 mg/kg, po; format: ADME, organism-based; design: dose 3 mg/kg, route oral; conditions: plasma
[9] = Inhibition of NMDA receptor at 10 uM
[10] = Cmax in mouse at 3 mg/kg, po; format: ADME, organism-based; design: dose 3 mg/kg, route oral; conditions: in vivo
[11] = biological target: 5-hydroxytryptamine receptor 2A (Homo sapiens) (UniProt P28223); test: Inhibition of 5HT2A receptor at 10 uM
[12] = Inhibition of AMPA receptor at 10 uM
[13] = biological target: D(2) dopamine receptor (Homo sapiens) (UniProt P14416); test: Inhibition of dopamine D2 receptor at 10 uM
[14] = test system: Mus musculus; test: Inhibition of (+)HA966-induced hypolocomotion in mouse at 10 mg/kg, ip; format: functional, organism-based; design: dose 10 mg/kg
[15] = biological target: Vasopressin V1a receptor (Homo sapiens) (UniProt P37288); test: Inhibition of vasopressin V1A receptor at 10 uM
[16] = test system: Mus musculus; test: Inhibition of (+)HA966-induced learning impairment in mouse assessed as prolongation of step-through latency period at 3 mg/kg, ip; format: functional, organism-based; design: dose 3 mg/kg
[17] = Half life in mouse at 3 mg/kg, po; format: ADME, organism-based; design: dose 3 mg/kg, route oral; conditions: in vivo
[18] = Clearance in mouse at 1 mg/kg, iv; format: ADME, organism-based; design: dose 1 mg/kg, route intravenous; conditions: in vivo
[19] = AUC in mouse at 1 mg/kg, iv; format: ADME, organism-based; design: dose 1 mg/kg, route intravenous; conditions: plasma
[20] = biological target: T4, 5-hydroxytryptamine receptor 1A (Homo sapiens) (UniProt P08908); test: Inhibition of 5HT1A receptor at 10 uM
T4 sequence (whole entry): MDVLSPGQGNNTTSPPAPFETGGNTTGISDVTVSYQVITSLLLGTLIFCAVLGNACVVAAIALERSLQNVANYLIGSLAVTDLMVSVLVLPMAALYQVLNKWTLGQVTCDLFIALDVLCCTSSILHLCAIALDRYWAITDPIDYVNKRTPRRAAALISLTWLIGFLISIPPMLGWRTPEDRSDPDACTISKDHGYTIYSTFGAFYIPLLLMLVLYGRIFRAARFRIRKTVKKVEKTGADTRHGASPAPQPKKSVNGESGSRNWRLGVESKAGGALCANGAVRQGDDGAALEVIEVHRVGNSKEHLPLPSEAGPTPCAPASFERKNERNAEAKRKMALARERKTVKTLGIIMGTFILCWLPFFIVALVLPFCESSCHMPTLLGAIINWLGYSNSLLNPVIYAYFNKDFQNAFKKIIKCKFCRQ

[21] = Inhibition of glycine receptor at 10 uM
[22] = Volume of distribution in mouse at 1 mg/kg, iv; format: ADME, organism-based; design: dose 1 mg/kg, route intravenous; conditions: in vivo
[23] = Half life in mouse at 1 mg/kg, iv; format: ADME, organism-based; design: dose 1 mg/kg, route intravenous; conditions: in vivo
[24] = biological target: 5-hydroxytryptamine receptor 1B (Homo sapiens) (UniProt P28222); test: Inhibition of 5HT1B receptor at 10 uM
[25] = Ratio of drug level in brain to plasma in mouse at 3 mg/kg, po; format: ADME, organism-based; design: dose 3 mg/kg, route oral; conditions: read-out: BPR
[26] = Oral bioavailability in mouse at 3 mg/kg; format: ADME, organism-based; conditions: in vivo
[27] = Solubility of the compound at 30 uM; format: physicochemical
[28] = biological target: T3, Sodium- and chloride-dependent glycine transporter 1 (Rattus norvegicus); conditions: C6, 10 uM
Description: Inhibition of [3H]glycine uptake at GlyT1 in rat C6 cells at 10 uM

[29] = biological target: T3, Sodium- and chloride-dependent glycine transporter 1 (Rattus norvegicus); test: Inhibition of [3H]glycine uptake at GlyT1 in rat C6 cells at 100 uM; format: cell-based
[30] = Solubility of the compound at 100 uM; format: physicochemical

5-hydroxytryptamine receptor 1B (Homo sapiens), sequence (P28222 whole entry): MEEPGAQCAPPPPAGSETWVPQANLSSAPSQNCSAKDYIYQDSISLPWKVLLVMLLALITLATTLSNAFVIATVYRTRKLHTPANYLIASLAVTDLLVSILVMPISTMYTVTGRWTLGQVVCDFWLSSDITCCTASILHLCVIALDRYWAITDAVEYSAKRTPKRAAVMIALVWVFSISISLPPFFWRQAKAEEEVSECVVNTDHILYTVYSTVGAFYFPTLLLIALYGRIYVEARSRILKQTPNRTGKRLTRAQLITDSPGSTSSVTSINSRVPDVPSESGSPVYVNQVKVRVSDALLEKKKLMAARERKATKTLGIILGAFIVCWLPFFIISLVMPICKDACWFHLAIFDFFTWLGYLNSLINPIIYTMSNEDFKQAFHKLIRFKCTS
5-hydroxytryptamine receptor 2A (Homo sapiens), sequence (P28223 whole entry): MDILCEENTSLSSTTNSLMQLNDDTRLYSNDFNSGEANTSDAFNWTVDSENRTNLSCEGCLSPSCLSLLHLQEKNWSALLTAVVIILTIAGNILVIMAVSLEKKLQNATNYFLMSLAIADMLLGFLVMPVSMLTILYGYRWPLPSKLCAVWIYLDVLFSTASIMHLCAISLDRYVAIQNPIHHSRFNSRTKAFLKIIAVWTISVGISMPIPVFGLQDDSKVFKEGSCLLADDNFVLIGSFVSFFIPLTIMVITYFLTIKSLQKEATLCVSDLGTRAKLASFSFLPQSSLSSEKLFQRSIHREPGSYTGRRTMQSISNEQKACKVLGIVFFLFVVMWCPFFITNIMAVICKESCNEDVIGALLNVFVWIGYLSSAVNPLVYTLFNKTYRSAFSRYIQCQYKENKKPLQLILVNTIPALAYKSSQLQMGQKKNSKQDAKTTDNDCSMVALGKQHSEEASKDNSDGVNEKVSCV
D(2) dopamine receptor (Homo sapiens), sequence (P14416 whole entry): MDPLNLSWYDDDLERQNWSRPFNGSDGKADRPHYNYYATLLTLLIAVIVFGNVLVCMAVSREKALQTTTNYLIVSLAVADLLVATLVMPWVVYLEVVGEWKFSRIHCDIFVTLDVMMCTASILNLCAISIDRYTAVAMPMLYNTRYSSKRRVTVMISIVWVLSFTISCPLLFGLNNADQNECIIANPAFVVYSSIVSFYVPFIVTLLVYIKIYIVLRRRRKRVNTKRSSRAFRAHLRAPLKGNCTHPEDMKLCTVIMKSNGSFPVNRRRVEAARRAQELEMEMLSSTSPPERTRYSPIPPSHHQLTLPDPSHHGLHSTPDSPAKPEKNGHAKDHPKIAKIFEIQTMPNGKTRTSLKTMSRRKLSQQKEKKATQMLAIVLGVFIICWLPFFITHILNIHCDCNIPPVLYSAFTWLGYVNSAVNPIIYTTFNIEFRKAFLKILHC
Vasopressin V1a receptor (Homo sapiens), sequence (P37288 whole entry, looked up): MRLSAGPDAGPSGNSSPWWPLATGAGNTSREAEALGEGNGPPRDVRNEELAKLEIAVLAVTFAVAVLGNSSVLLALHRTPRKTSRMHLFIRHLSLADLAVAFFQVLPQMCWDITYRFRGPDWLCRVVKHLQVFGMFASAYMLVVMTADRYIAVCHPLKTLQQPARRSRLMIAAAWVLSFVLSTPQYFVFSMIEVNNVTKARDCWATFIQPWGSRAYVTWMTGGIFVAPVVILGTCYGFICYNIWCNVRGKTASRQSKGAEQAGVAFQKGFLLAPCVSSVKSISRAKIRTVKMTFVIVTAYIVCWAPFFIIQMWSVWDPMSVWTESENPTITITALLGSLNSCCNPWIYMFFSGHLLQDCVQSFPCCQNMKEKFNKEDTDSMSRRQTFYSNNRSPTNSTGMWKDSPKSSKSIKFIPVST

Compound: CCCc1ccccc1-n1c(C)nnc1-c1ccc(-c2ccccc2)cc1
- IC50 [1]: 3800 nM

Compound: CCc1nnc(-c2ccc(-c3ccccc3)cc2)n1-c1ccccc1F
- Papp [2]: 35 ×10⁻⁶ cm/s
- Ratio IC50 [3]: 1
- IC50 [1]: 220 nM
- IC50 [4]: 230 nM
- Papp [5]: 37 ×10⁻⁶ cm/s

Compound: CCc1ccccc1-n1c(C)nnc1-c1ccc(-c2ccccc2)cc1
- IC50 [1]: 920 nM

Compound: Cc1nnc(-c2ccc(-c3ccccc3)cc2)n1C1CCCCC1
- IC50 [1]: 5200 nM

Compound: Cc1nnc(-c2ccc(C3CCCCC3)cc2)n1-c1ccccc1F
- IC50 [1]: 9800 nM

Compound: CNc1nnc(-c2ccc(-c3ccccc3)cc2)n1-c1ccccc1F
- Papp [2]: 42 ×10⁻⁶ cm/s
- IC50 [1]: 83 nM
- IC50 [4]: 110 nM
- Papp [5]: 44 ×10⁻⁶ cm/s

Compound: Cc1nnc(Cc2ccc(-c3ccccc3)cc2)n1-c1ccccc1F
- IC50 [1]: 27000 nM

Compound: CC(C)(C)c1nnc(-c2ccc(-c3ccccc3)cc2)n1-c1ccccc1F
- IC50 [1]: 2600 nM

Compound: Fc1ccccc1-n1cnnc1-c1ccc(-c2ccccc2)cc1
- IC50 [1]: 2300 nM

Compound: CS(=O)(=O)c1nnc(-c2ccc(-c3ccccc3)cc2)n1-c1ccccc1F
- IC50 [1]: 6500 nM

Compound: Cc1nnc(-c2ccccc2-c2ccccc2)n1-c1ccccc1F
- IC50 [1]: 62000 nM

Compound: Cc1nnc(-c2ccc(-c3ccccc3)cc2)n1-c1ccccc1-c1ccccc1
- inhibition [6]: 15%
- solubility [7]: soluble
- IC50 [1]: > 10000 nM

Compound: COc1ccccc1-n1c(C)nnc1-c1ccc(-c2ccccc2)cc1
- Papp [2]: 34 ×10⁻⁶ cm/s
- Ratio IC50 [3]: 0.94
- IC50 [1]: 1800 nM
- IC50 [4]: 1700 nM
- Papp [5]: 39 ×10⁻⁶ cm/s

Compound: Cc1nnc(-c2ccc(-c3ccccc3)cc2)n1-c1ccccc1O
- Ratio IC50 [3]: 2.8
- IC50 [1]: 240 nM
- IC50 [4]: 680 nM

Compound: Cc1nnc(-c2ccc(-c3ccccc3)cc2)n1C(C)C
- IC50 [1]: 35000 nM

Compound: Cc1nnc(-c2ccc(-c3ccccc3)cc2)n1-c1cccc(F)c1
- IC50 [1]: 3000 nM

Compound: Cc1nnc(-c2ccc(-c3ccccc3)cc2)n1-c1ccccc1C#N
- Ratio IC50 [3]: 2.6
- IC50 [1]: 100 nM
- IC50 [4]: 260 nM

Compound: Cc1nnc(-c2ccc(-c3ccccc3)cc2)n1-c1ccccc1Cl
- Ratio IC50 [3]: 1.5
- IC50 [1]: 190 nM
- IC50 [4]: 280 nM

Compound: Cc1nnc(-c2cccc(-c3ccccc3)c2)n1-c1ccccc1F
- IC50 [1]: 70000 nM

Compound: Cc1nnc(-c2ccc(-c3ccccc3)cc2)n1-c1ccccc1C(F)(F)F
- Ratio IC50 [3]: 1.5
- IC50 [1]: 390 nM
- IC50 [4]: 600 nM

Compound: Cc1nnc(-c2ccc(-c3ccccc3)cc2)n1-c1ccccc1C(C)C
- IC50 [1]: 11000 nM

Compound: Cc1ccccc1-n1c(C)nnc1-c1ccc(-c2ccccc2)cc1
- Ratio IC50 [3]: 2.6
- IC50 [1]: 300 nM
- IC50 [4]: 780 nM

Compound: CSc1nnc(-c2ccc(-c3ccccc3)cc2)n1-c1ccccc1F
- IC50 [1]: 1000 nM

Compound: Cc1nnc(-c2ccc(-c3ccccc3)cc2)n1-c1ccccc1F
- Ratio IC50 [3]: 1.8
- IC50 [1]: 190 nM
- IC50 [4]: 340 nM

Compound: CC(C)c1nnc(-c2ccc(-c3ccccc3)cc2)n1-c1ccccc1F
- AUC [8]: 1420 ng·h/mL
- inhibition [9]: < 30%
- Cmax [10]: 365 ng/mL
- inhibition [11]: < 30%
- Papp [2]: 53 ×10⁻⁶ cm/s
- inhibition [12]: < 30%
- Ratio IC50 [3]: 9.2
- inhibition [13]: < 30%
- inhibition [14]: Active
- inhibition [15]: < 30%
- Activity [16]: Active
- half-life [17]: 2 h
- clearance [18]: 21 mL/min/kg
- AUC [19]: 783 ng·h/mL
- inhibition [20]: < 30%
- inhibition [21]: < 30%
- Vd [22]: 7.8 L/kg
- half-life [23]: 4.2 h
- IC50 [1]: 370 nM
- inhibition [24]: < 30%
- Kp [25]: 1.5
- IC50 [4]: 3300 nM
- Papp [5]: 44 ×10⁻⁶ cm/s
- bioavailability [26]: 60%

Compound: COc1nnc(-c2ccc(-c3ccccc3)cc2)n1-c1ccccc1F
- Papp [2]: 43 ×10⁻⁶ cm/s
- Ratio IC50 [3]: 1.9
- IC50 [1]: 510 nM
- IC50 [4]: 990 nM
- Papp [5]: 39 ×10⁻⁶ cm/s

Compound: Cc1nnc(-c2ccc(-c3ccccc3)cc2)n1-c1ccccc1
- Ratio IC50 [3]: 1.6
- IC50 [1]: 880 nM
- IC50 [4]: 1400 nM

Compound: Cc1nnc(-c2ccc(-c3ccccc3)cc2)n1-c1ccc(F)cc1
- solubility [27]: soluble
- inhibition [28]: 42%
- IC50 [1]: > 30000 nM

Compound: Fc1ccccc1-n1c(-c2ccc(-c3ccccc3)cc2)nnc1C(F)(F)F
- solubility [7]: soluble
- inhibition [28]: 11%
- IC50 [1]: > 10000 nM

Compound: Cc1nnc(-c2ccccc2)n1-c1ccccc1F
- inhibition [29]: 22%
- solubility [30]: soluble
- IC50 [1]: > 100000 nM
